# From ChEMBL document CHEMBL1201862, “PubChem BioAssay data set” (2004)
# Active and inactive are the calls of the source.
# Key:
# [1] = tested on: HEK293; assay: cells; type: functional, cell-based; conditions: Homo sapiens
# [2] = tested on: HEK293; assay: NOD2 signaling inhibitors in MDP-stimulated cells, cell-based, uHTS, luminescence (AID 2001); type: functional; conditions: Homo sapiens
# [3] = Luminescence Cell-Based Dose Response HTS to Identify Inhibitors of 5'UTR Stem-Loop Driven Prion Protein mRNA Translation in H4 Neuroglioblastoma Cells. [Related pubchem assays: 1827 (Project Summary), 1813 (Primary HTS)]; type: functional
# [4] = inhibitors of firefly luciferase expression or activity, dose response, H4 neuroglioma cells, luminescence (AID 1990); type: functional, cell-based
# [5] = tested on: HEK293; assay: cells; type: functional, cell-based; conditions: Homo sapiens; remark: listed apart in the source
# [6] = molecular target: Nucleotide-binding oligomerization domain-containing protein 2 (Homo sapiens, UniProt Q9HC29); assay: NOD2 signaling inhibitors, cell-based, luminescence, uHTS, HEK293 (AID 1566); type: functional
# [7] = tested on: HEK293; assay: cells; type: functional, cell-based; conditions: Homo sapiens; remark: listed apart in the source
# [8] = inhibitors of SNCA 5'UTR-driven reporter translation, confirmation, H4 neuroglioma cells, luminescence (AID 1988); type: functional, cell-based
# [9] = tested on: HEK293; assay: NOD1 signaling inhibitors, primary screen, cell-based, luminescence, uHTS (AID 1578); type: functional; conditions: Homo sapiens
# [10] = molecular target: Voltage-dependent T-type calcium channel subunit alpha-1H (Homo sapiens, UniProt O95180); type: functional;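 also: channel activity triggered by adding a high calcium stimulation buffer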
# [11] = molecular target: Troponin, cardiac muscle (Homo sapiens, UniProt P19429+P45379+P63316); assay: Fluorescence-based biochemical high throughput dose response assay for activators of the calcium sensitivity of cardiac Regulated Thin Filaments (RTF). [Related pubchem assays (depositor defined):AID493008, AID493018, AID504382, AID504383]; type: protein-complex assay
# [12] = molecular target: T1, Coagulation factor XII (Homo sapiens, UniProt P00748); type: functional;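 also: activated factor XIIa alpha cleaving a fluorogenic AMC peptide substrate; inhibitor potency from loss of enzyme activity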
# T1 sequence (P00748 whole entry): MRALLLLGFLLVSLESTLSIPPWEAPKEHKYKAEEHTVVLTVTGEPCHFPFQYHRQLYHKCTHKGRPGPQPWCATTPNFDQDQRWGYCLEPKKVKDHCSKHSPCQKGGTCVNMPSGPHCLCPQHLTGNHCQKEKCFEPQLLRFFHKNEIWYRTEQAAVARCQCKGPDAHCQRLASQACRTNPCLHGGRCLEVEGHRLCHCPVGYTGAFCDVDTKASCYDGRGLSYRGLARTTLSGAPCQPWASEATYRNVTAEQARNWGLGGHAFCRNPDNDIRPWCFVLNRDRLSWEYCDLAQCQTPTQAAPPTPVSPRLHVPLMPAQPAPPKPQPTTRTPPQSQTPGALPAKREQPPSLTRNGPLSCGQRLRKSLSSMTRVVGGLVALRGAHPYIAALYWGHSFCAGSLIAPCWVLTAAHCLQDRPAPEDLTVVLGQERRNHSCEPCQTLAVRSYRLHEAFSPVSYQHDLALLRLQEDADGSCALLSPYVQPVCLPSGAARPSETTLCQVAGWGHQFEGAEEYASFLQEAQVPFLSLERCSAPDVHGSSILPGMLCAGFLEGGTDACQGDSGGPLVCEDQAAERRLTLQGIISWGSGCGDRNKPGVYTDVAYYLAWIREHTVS
# [13] = molecular target: Prothrombin (Homo sapiens, UniProt P00734); assay: Thrombin 1536 HTS Dose Response Confirmation. [Related pubchem assays: 1046 (Thrombin 1536 HTS; hits were confirmed in this assay)]; type: functional
# [14] = growth suppression of beta-catenin-knockout colon cells, dose response, cell-based, HCT116, human colon tumor (AID 1045); type: functional;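 also: HCT116 colon tumor cells with beta catenin knocked out; cells exposed to compound for 60 hours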
# [15] = cytotoxicity in HEK-293T cells, dose response, cytotoxicity control for BCR NF-kB inhibitor project, luminescence, B-cell screen hits (AID 489021); type: functional, cell-based;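 also: HEK-293T cells carrying an NF-kB luciferase reporter; cells exposed to compound for about 14 hours before viability readout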
# [16] = growth suppression of PTEN-null colon cells, dose response, cell-based, HCT116 PTEN knockout (AID 1047); type: functional;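 also: HCT116 colon tumor cells with PTEN knocked out; cells exposed to compound for 60 hours before readout; potency for loss of cell viability measured by luminescence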
# [17] = molecular target: T2, Zinc finger protein mex-5 (Caenorhabditis elegans, UniProt Q9XUB2); assay: MEX-5/TCR-2 RNA interaction inhibitors, dose response, biochemical, C. elegans, fluorescence polarization (AID 1960)
# T2 sequence (Q9XUB2 whole entry): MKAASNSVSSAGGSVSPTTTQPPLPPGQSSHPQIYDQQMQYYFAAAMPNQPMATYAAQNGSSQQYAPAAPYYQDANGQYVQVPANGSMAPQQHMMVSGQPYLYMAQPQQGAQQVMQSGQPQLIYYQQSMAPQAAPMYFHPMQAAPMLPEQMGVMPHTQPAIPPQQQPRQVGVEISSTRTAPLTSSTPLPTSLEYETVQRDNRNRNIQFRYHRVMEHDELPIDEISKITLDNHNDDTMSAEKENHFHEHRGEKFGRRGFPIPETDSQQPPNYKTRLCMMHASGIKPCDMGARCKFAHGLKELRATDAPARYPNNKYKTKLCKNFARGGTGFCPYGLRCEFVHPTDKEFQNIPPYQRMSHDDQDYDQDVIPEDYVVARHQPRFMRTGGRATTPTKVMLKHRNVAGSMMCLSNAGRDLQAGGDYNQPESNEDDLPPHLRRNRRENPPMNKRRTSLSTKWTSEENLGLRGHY
# [18] = molecular target: T3, RNA-binding protein pos-1 (Caenorhabditis elegans, UniProt G5EF15); assay: inhibitors of POS-1/mex-3 RNA binding, dose response, biochemical, fluorescence polarization (AID 1964);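 also: purified POS-1 fused to maltose binding protein made in E. coli; potency of compounds blocking POS-1 binding to fluorescent RNA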
# T3 sequence (G5EF15 whole entry): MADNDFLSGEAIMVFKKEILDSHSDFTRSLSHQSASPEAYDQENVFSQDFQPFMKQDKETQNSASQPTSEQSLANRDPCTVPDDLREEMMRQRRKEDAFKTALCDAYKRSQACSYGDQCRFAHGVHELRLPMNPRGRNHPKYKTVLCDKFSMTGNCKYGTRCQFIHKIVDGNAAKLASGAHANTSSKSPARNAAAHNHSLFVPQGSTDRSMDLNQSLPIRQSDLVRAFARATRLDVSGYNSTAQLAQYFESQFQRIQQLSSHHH
smiles,measurement,setting,value
COc1ccccc1C(=O)NCc1ccc(-c2nc3ccccc3s2)cc1,IC50,[1],> 20 µM (inactive)
same,IC50,[2],6.82 µM (inactive)
same,EC50,[3],> 120 µM (not active)
same,EC50,[4],15.2 µM (active)
same,IC50,[5],> 20 µM (inactive)
same,EC50,[6],6.29 µM (active)
same,IC50,[7],1.93 µM (active)
same,EC50,[8],0.312 µM (active)
same,EC50,[9],6.77 µM (active)
O=C(NC1CCCCC1)C(c1ccccc1)N(Cc1ccc2c(c1)OCO2)C(=O)c1cnsn1 (stereo not given),EC50,[10],4.5 µM (active)
O=C(c1ccccc1)c1cccc(NC(=O)c2ccc(Br)o2)c1,EC50,[10],7.3 µM (active)
N=c1n(Cc2ccccc2)c2ccccc2n1CC(O)c1ccco1 (stereo not given),EC50,[11],> 71.5 µM (inactive)
Cc1ccc(S(=O)(=O)Nc2cccnc2Oc2ccc(Cl)cc2)cc1,IC50,[12],> 50 µM (inactive)
same,IC50,[13],> 50 µM (not active)
COc1ccc(NC(=O)c2cc3c(Cl)nc4ccccc4c3s2)cc1OC,EC50,[14],48.8 µM (active)
same,IC50,[15],> 80 µM (inactive)
same,EC50,[16],58.6 µM (active)
Cc1ccccc1Nc1nc(Cl)c(C=O)s1,EC50,[17],> 300 µM (not active)
same,IC50,[15],> 80 µM (inactive)
same,EC50,[18],> 300 µM (not active)
